In PubChem BioAssay (NCI):
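In this assay, cells in 96-well plates receive the compound at five concentrations for 48 hours. Endpoints are linearly interpolated between the surrounding concentrations. GI50 is the concentration that inhibits growth by half. TGI is the concentration that stops growth completely.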

Key:
Assay in all cases: NCI tumour cell line growth inhibition, 48 h
[1] = system: SK-MEL-2 melanoma
[2] = system: RXF 393 renal
[3] = system: HCT-116 colon
[4] = system: OVCAR-8 ovarian
[5] = system: SN12C renal
[6] = system: HS 578T breast
[7] = system: K-562 leukemia
[8] = system: HL-60(TB) leukemia
[9] = system: T-47D breast
[10] = system: U251 CNS
[11] = system: COLO 205 colon
[12] = system: CCRF-CEM leukemia
[13] = system: DU-145 prostate
[14] = system: SK-OV-3 ovarian
[15] = system: SNB-19 CNS
[16] = system: SR leukemia
[17] = system: NCI-H226 lung
[18] = system: SW-620 colon
[19] = system: HOP-92 NSCLC
[20] = system: MDA-MB-435
[21] = system: MCF7 breast
[22] = system: A498 renal
[23] = system: ACHN renal
[24] = system: UACC-62 melanoma
[25] = system: SF-539 CNS
[26] = system: EKVX NSCLC
[27] = system: OVCAR-5 ovarian
[28] = system: HCT-15 colon
[29] = system: PC-3 prostate
[30] = system: MALME-3M melanoma
[31] = system: KM12 colon
[32] = system: SK-MEL-5 melanoma
[33] = system: 786-0 renal
[34] = system: LOX IMVI melanoma
[35] = system: MOLT-4 leukemia
[36] = system: NCI/ADR-RES ovarian
[37] = system: IGROV1 ovarian
[38] = system: OVCAR-3 ovarian
[39] = system: SK-MEL-28 melanoma
[40] = system: UACC-257 melanoma
[41] = system: BT-549 breast
[42] = system: NCI-H23 lung
[43] = system: TK-10 renal
[44] = system: HCC-2998 colon
[45] = system: MDA-MB-468 breast
[46] = system: NCI-H522 lung
[47] = system: A549 NSCLC
[48] = system: OVCAR-4 ovarian
[49] = system: SNB-75 CNS
[50] = system: SF-268 CNS
[51] = system: HOP-62 NSCLC
[52] = system: MDA-MB-231 breast
[53] = system: CAKI-1 renal
[54] = system: NCI-H460 lung
[55] = system: RPMI-8226 leukemia
[56] = system: UO-31 renal
[57] = system: HT29 colon
[58] = system: M14 melanoma

Compound `O=C(CSc1nnc(-c2ccc(-c3nc4ccc(Cl)cc4[nH]3)cc2)o1)Nc1ccccc1` has a GI50 [1] of 14.9 µM, a TGI [1] of 30.5 µM and a GI50 [2] of 2.38 µM. For the same compound, the TGI [2] was 6.52 µM, the GI50 [3] was 3.95 µM and the TGI [3] was 41.1 µM. The GI50 [4] was 3.88 µM, the TGI [4] was 18 µM and the GI50 [5] was 3.26 µM. The TGI [5] was 13.8 µM, the GI50 [6] was 2.92 µM and the TGI [6] was 13.9 µM. For the same compound, the GI50 [7] was 3.58 µM, the TGI [7] was over 100 µM and the GI50 [8] was 16.4 µM. It also gave a TGI [8] of over 100 µM, a GI50 [9] of 17.1 µM and a TGI [9] of 41.4 µM. It also gave a GI50 [10] of 4.54 µM, a TGI [10] of 17.9 µM and a GI50 [11] of 14.9 µM. The TGI [11] was 41.9 µM, the GI50 [12] was 7.3 µM and the TGI [12] was 68.8 µM. The GI50 [13] was 2.44 µM, the TGI [13] was 5.48 µM and the GI50 [14] was 3.97 µM. For the same compound, the TGI [14] was 14.9 µM, the GI50 [15] was 3.26 µM and the TGI [15] was 12.2 µM. The GI50 [16] was 16.3 µM, the TGI [16] was over 100 µM and the GI50 [17] was 1.87 µM. The TGI [17] was 5.28 µM, the GI50 [18] was 3.54 µM and the TGI [18] was 15.9 µM. For the same compound, the GI50 [19] was 2.33 µM, the TGI [19] was 8.78 µM and the GI50 [20] was 2.17 µM. It also gave a TGI [20] of 7.11 µM, a GI50 [21] of 7.37 µM and a TGI [21] of over 100 µM. The GI50 [22] was 15.2 µM, the TGI [22] was 28.5 µM and the GI50 [23] was 2.64 µM. The TGI [23] was 11 µM, the GI50 [24] was 6.71 µM and the TGI [24] was 19.5 µM. For the same compound, the GI50 [25] was 2.24 µM, the TGI [25] was 5.74 µM and the GI50 [26] was 4.86 µM. It also gave a TGI [26] of 25.6 µM, a GI50 [27] of 7.42 µM and a TGI [27] of 27.2 µM. It also gave a GI50 [28] of 8.35 µM, a TGI [28] of over 100 µM and a GI50 [29] of 1.82 µM. For the same compound, the TGI [29] was 5.04 µM, the GI50 [30] was 1.99 µM and the TGI [30] was 5.34 µM. The GI50 [31] was 8.4 µM, the TGI [31] was 27.4 µM and the GI50 [32] was 3.72 µM. For the same compound, the TGI [32] was 14.5 µM, the GI50 [33] was 1.52 µM and the TGI [33] was 3.44 µM. It also gave a GI50 [34] of 1.83 µM, a TGI [34] of 4.48 µM and a GI50 [35] of 8.63 µM. For the same compound, the TGI [35] was over 100 µM, the GI50 [36] was 9.04 µM and the TGI [36] was 43.5 µM. For the same compound, the GI50 [37] was 13.5 µM, the TGI [37] was 28.5 µM and the GI50 [38] was 3.3 µM. It also gave a TGI [38] of 11.3 µM, a GI50 [39] of 2.52 µM and a TGI [39] of 7.01 µM. The GI50 [40] was 5.91 µM, the TGI [40] was 21.8 µM and the GI50 [41] was 2.98 µM. The TGI [41] was 17 µM, the GI50 [42] was 3.04 µM and the TGI [42] was 10.1 µM. The GI50 [43] was 20.9 µM, the TGI [43] was 39 µM and the GI50 [44] was 32.8 µM. The TGI [44] was over 100 µM, the GI50 [45] was 15.6 µM and the TGI [45] was 30 µM. For the same compound, the GI50 [46] was 2.74 µM, the TGI [46] was 10.6 µM and the GI50 [47] was 2.57 µM. It also gave a TGI [47] of 11.3 µM, a GI50 [48] of 3.02 µM and a TGI [48] of 11 µM. For the same compound, the GI50 [49] was 1.65 µM, the TGI [49] was 4.8 µM and the GI50 [50] was 2.44 µM. It also gave a TGI [50] of 6.71 µM, a GI50 [51] of 2.18 µM and a TGI [51] of 5.54 µM. It also gave a GI50 [52] of 3.26 µM, a TGI [52] of 11.9 µM and a GI50 [53] of 1.9 µM. The TGI [53] was 3.89 µM, the GI50 [54] was 0.9 µM and the TGI [54] was 2.97 µM. The GI50 [55] was 15.5 µM, the TGI [55] was over 100 µM and the GI50 [56] was 10.8 µM. For the same compound, the TGI [56] was 22.9 µM, the GI50 [57] was 4.5 µM and the TGI [57] was 53.6 µM. The GI50 [58] was 3.39 µM and the TGI [58] was 14.1 µM.
